Assay results published in ChEMBL document CHEMBL5096241, “Discovery of 3-Aminopyrazole Derivatives as New Potent and Orally Bioavailable AXL Inhibitors” (J Med Chem, 2022).

molecular target: T1, Tyrosine-protein kinase receptor UFO (Homo sapiens, UniProt P30530); experiment: Inhibition of recombinant AXL (unknown origin) using poly (Glu,Tyr) 4:1 as substrate incubated for 60 mins in presence of ATP by ELISA; settings: not given
T1 sequence (P30530 whole entry): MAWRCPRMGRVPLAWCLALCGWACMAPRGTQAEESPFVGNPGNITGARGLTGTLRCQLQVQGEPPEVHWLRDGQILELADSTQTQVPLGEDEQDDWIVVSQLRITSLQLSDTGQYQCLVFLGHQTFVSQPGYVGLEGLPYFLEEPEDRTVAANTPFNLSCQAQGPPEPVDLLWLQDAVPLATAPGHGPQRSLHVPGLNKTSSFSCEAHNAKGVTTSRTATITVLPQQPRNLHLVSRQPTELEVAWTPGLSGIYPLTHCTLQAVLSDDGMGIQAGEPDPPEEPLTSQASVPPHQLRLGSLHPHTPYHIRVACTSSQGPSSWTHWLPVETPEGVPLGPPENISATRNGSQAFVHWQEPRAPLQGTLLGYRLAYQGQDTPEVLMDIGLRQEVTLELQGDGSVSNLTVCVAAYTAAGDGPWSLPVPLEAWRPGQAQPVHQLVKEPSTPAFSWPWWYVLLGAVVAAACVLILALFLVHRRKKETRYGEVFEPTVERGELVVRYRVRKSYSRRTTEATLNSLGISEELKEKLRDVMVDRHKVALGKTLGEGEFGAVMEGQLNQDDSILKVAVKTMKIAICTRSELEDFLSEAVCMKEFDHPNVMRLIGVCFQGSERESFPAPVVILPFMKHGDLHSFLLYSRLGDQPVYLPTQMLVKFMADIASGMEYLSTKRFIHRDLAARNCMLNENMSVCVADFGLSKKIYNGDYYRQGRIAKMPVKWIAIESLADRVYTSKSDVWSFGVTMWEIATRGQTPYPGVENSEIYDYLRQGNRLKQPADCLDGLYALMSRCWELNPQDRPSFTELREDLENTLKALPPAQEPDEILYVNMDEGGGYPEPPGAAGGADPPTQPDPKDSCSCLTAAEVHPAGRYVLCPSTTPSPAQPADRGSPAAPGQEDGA

SMILES | IC50
COc1cc2nccc(Oc3ccc(Nc4nn(C)cc4C(=O)N4CCCCC4)cc3F)c2cc1OC | > 1 µM
COc1cc2nccc(Oc3ccc(Nc4nn(C)cc4C(=O)NC4CCOCC4)cc3F)c2cc1OC | 0.12 µM
COCCCOc1cc2nccc(Oc3ccc(Nc4nn(C)cc4C(=O)NC4CCCCC4)cc3F)c2cc1OC | 0.0086 µM
COc1cc2nccc(Oc3ccc(Nc4nn(C)cc4C(=O)NC4C5CC6CC(C5)CC4C6)cc3F)c2cc1OC (stereo not given) | 0.0132 µM
COCCOc1cc2nccc(Oc3ccc(Nc4nn(C)cc4C(=O)NC4CCCCC4)cc3F)c2cc1OC | 0.0078 µM
COc1cc2c(Oc3ccc(Nc4nn(C)cc4C(=O)NC4CCCCC4)cc3F)ccnc2cc1OCCCN(C)C | 0.0032 µM
COc1cc2nccc(Oc3ccc(Nc4nn(C)cc4C(=O)NC4CCCCC4)cc3C)c2cc1OC | 0.0404 µM
COc1cc2nccc(Oc3ccc(Nc4nn(C)cc4C(=O)NC4CCCCC4)cc3OC)c2cc1OC | 0.0404 µM
COc1cc2nccc(Oc3ccc(Nc4nn(C)cc4C(=O)NC4CCC(F)(F)CC4)cc3F)c2cc1OC | 0.0651 µM
COc1cc2c(Oc3ccc(Nc4nn(C)cc4C(=O)NC4CCCCC4)cc3F)ccnc2cc1OCCCN1CCN(C)CC1 | 0.0029 µM
COc1cc2nccc(Oc3ccc(Nc4nn(C)cc4C(=O)NC4CCCCCCC4)cc3F)c2cc1OC | 0.0125 µM
COc1cc2nccc(Oc3ccc(Nc4nn(C)cc4C(=O)NC4CCCCC4)cc3F)c2cc1OC | 0.0114 µM
COc1cc2nccc(Oc3ccc(Nc4nn(C)cc4C(=O)NC4CCCCC4)cc3)c2cc1OC | 0.035 µM
COc1cc2c(Oc3ccc(Nc4nn(C)cc4C(=O)NC4CCCCC4)cc3F)ccnc2cc1OCCCN1CCCCC1 | 0.0056 µM

Second part, the compound after the results:

IC50 | SMILES
> 1 µM | COc1cc2nccc(Oc3ccc(Nc4nn(C)cc4C(=O)Nc4ccc(C(C)C)cc4)cc3F)c2cc1OC
0.0644 µM | COc1cc2nccc(Oc3ccc(Nc4nn(C)cc4C(=O)Nc4ccc(OC(F)F)cc4)cc3F)c2cc1OC
0.0231 µM | COc1cc2nccc(Oc3ccc(Nc4nn(C)cc4C(=O)Nc4ccc(C)cc4)cc3F)c2cc1OC
0.265 µM | COc1cc2nccc(Oc3ccc(Nc4nn(C)cc4C(=O)Nc4cccc(F)c4)cc3F)c2cc1OC
> 1 µM | CNC(=O)c1cn(C)nc1Nc1ccc(Oc2ccnc3cc(OC)c(OC)cc23)c(F)c1
0.142 µM | COc1cc2nccc(Oc3ccc(Nc4nn(C)cc4C(=O)NC(C)(C)C)cc3F)c2cc1OC
0.0274 µM | COc1cc2nccc(Oc3ccc(Nc4nn(C)cc4C(=O)NC4CCCC4)cc3F)c2cc1OC
0.0254 µM | COc1cc2nccc(Oc3ccc(Nc4nn(C)cc4C(=O)Nc4ccccc4)cc3F)c2cc1OC
> 1 µM | COc1cc2nccc(Oc3ccc(Nc4nn(C)cc4C(=O)Nc4ccc(OC(F)(F)F)cc4)cc3F)c2cc1OC
0.238 µM | CCNC(=O)c1cn(C)nc1Nc1ccc(Oc2ccnc3cc(OC)c(OC)cc23)c(F)c1
0.586 µM | COc1cc2nccc(Oc3ccc(Nc4nn(C)cc4C(=O)NC4CC4)cc3F)c2cc1OC
0.0401 µM | COc1cc2nccc(Oc3ccc(Nc4nn(C)cc4C(=O)Nc4ccc(F)cc4)cc3F)c2cc1OC
0.0867 µM | COc1ccc(NC(=O)c2cn(C)nc2Nc2ccc(Oc3ccnc4cc(OC)c(OC)cc34)c(F)c2)cc1

tested on: BaF3; experiment: Antiproliferative activity against mouse BaF3 cells transfected with TEL-AXL assessed as inhibition of cell growth incubated for 72 hrs; format: functional, cell-based; settings: BaF3, 72 h

IC50 | SMILES
0.0116 µM | COc1cc2c(Oc3ccc(Nc4nn(C)cc4C(=O)NC4CCCCC4)cc3F)ccnc2cc1OCCCN(C)C
0.0988 µM | Nc1nc(Nc2ccc3c(c2)CCC(N2CCCC2)CC3)nn1-c1cc2c(nn1)-c1ccccc1CCC2 (single isomer, unassigned) [BEMCENTINIB]
0.009 µM | COc1cc2c(Oc3ccc(Nc4nn(C)cc4C(=O)NC4CCCCC4)cc3F)ccnc2cc1OCCCN1CCN(C)CC1
